Experimental findings from ChEMBL document CHEMBL1909046, “DrugMatrix in vitro pharmacology data” are described below.

The target in assay [1] is Protein phosphatase 3 catalytic subunit alpha (Homo sapiens, UniProt Q08209). Also on record: species or system Escherichia coli.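 Note: inhibition of calcineurin (PP2B) enzyme activity, measured with DiFMUP as the substrate; in other assays of this panel Not Active means under 50% inhibition at 10 µM.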
Assay [2] addresses T1, Adenosine receptor A1 (Homo sapiens, UniProt P30542).
T1 sequence (P30542 whole entry): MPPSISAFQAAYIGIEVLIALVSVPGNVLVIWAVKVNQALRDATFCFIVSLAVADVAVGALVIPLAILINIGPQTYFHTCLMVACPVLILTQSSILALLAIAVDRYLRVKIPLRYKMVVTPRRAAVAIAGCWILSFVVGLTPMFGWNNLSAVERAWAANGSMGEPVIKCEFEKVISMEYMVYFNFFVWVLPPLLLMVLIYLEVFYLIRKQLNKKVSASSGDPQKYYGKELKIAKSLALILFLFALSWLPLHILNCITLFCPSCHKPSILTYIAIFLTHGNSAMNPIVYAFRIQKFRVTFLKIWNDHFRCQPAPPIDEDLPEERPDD
The assay is classed as cell membranes, CHO, Membrane. As to conditions: cho.

Assay [3] in a line: DRUGMATRIX: Platelet-Derived Growth Factor (PDGF) radioligand binding (ligand: [125I] PDGF). The format is cell-based. As to conditions: nih3t3; Not Active = under 50% inhibition at 10 µM.
Assay [4] addresses T2, Alpha-1D adrenergic receptor (Homo sapiens, UniProt P25100).
T2 sequence (P25100 whole entry): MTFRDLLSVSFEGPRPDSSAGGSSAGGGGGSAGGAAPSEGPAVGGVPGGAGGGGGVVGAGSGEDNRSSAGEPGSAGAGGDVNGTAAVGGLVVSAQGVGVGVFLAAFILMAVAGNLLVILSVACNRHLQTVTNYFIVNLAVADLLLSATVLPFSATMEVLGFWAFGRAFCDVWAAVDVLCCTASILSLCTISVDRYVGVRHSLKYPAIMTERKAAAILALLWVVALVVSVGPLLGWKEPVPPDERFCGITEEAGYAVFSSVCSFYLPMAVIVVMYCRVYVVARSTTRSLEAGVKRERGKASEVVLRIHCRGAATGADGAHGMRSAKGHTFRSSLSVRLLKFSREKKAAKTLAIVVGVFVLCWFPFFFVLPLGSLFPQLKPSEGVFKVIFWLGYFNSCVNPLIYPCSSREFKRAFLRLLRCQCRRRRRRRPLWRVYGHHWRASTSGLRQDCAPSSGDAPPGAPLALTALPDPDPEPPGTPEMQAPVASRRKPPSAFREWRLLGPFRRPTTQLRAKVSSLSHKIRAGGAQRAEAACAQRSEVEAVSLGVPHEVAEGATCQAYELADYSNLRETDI
The format is cell membranes, HEK293, Membrane.

The target in assay [5] is 5-hydroxytryptamine receptor 4 (Cavia porcellus, UniProt O70528). The assay is classed as cell membranes, Dunkin-Hartley, Striatum, Membrane. Note: in other assays of this panel Not Active means under 50% inhibition at 10 µM.
In assay [6] the target is Histamine H2 receptor (Homo sapiens, UniProt P25021). The assay is classed as cell membranes, CHO-K1, Membrane. Note: in other assays of this panel Not Active means under 50% inhibition at 10 µM.
The target in assay [7] is Sodium-dependent noradrenaline transporter (Homo sapiens, UniProt P23975). As to the kind of experiment: DRUGMATRIX: Norepinephrine Transporter radioligand binding (ligand: [125I] RTI-55). The assay is classed as cell membranes, MDCK, Membrane. The note with it: Not Active = under 50% inhibition at 10 µM.
Sodium-dependent noradrenaline transporter, sequence (P23975 whole entry): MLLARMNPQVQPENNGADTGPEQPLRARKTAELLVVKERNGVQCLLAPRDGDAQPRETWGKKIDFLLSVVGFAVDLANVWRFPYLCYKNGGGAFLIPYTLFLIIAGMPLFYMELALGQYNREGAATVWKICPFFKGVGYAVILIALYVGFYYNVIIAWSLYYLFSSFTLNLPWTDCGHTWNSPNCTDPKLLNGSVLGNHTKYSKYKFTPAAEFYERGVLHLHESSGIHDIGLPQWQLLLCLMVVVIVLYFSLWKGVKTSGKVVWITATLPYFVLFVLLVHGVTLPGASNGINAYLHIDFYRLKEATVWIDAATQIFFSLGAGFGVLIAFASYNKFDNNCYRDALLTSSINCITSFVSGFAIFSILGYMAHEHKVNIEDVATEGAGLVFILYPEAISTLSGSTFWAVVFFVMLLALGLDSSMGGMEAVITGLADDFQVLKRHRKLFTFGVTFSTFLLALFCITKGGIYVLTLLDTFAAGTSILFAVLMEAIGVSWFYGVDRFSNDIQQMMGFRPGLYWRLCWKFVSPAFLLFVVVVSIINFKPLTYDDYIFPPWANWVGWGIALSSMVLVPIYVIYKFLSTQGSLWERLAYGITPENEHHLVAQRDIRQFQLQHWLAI

5-hydroxytryptamine receptor 4, sequence (O70528 whole entry): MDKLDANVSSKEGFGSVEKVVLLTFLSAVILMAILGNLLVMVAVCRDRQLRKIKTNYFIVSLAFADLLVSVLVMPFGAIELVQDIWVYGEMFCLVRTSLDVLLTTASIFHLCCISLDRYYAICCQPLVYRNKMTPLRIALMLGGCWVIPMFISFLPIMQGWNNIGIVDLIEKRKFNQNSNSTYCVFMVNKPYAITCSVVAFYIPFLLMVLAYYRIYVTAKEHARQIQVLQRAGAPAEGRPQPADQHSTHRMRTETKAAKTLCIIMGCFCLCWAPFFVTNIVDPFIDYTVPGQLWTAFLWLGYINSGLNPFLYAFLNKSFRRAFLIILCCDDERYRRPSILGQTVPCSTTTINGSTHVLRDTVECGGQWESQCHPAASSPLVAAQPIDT
Histamine H2 receptor, sequence (P25021 whole entry): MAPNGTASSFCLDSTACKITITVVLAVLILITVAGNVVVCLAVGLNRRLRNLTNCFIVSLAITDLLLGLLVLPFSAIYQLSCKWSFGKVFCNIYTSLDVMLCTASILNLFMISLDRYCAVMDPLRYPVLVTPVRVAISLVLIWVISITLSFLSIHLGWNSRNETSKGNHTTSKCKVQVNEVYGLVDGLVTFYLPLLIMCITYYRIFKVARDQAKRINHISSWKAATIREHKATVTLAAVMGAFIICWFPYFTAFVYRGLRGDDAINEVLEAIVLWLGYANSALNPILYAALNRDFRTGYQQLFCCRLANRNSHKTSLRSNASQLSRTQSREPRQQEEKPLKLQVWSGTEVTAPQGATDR

Turning to `COc1ccc(CCN(C)CCCC(C#N)(c2ccc(OC)c(OC)c2)C(C)C)cc1OC` (stereo not given), the IC50 result in assay [1], in assay [2], in assay [3], in assay [4] (hek293) and in assay [5] was “Not Active” in each case. Besides, the Ki entry in assay [3] is given as “Not Active”.
Consider `CC(C)Cc1ccc([C@@H](C)C(=O)O)cc1` [(R)-IBUPROPHEN], for which the half-maximal inhibitory concentration (IC50) entry in assay [1], in assay [6] (cho-k1), in assay [7] (mdck), in assay [2], in assay [3] and in assay [4] (hek293) was “Not Active” throughout. Besides, the IC50 result in assay [5] is reported as “Not Active”. Also, in assay [3], the Ki entry was “Not Active”.
In the case of `CC(C)NCC(O)c1ccc(O)c(O)c1` (stereo not given) [ISOPROTERENOL], the IC50 result in assay [1], in assay [6] (cho-k1), in assay [7] (mdck), in assay [2], in assay [3] and in assay [4] (hek293) was “Not Active” throughout. For the same compound, the IC50 entry in assay [5] is reported as “Not Active”. Further, in assay [3], the Ki entry is “Not Active”.
As for `NC(=O)N1C(=O)/C(=C(\O)c2cccs2)c2cc(Cl)ccc21` [TENIDAP], the IC50 result in assay [1], in assay [6] (cho-k1), in assay [7] (mdck), in assay [2], in assay [3] and in assay [4] (hek293) was “Not Active” in each case. In addition, in assay [5], the IC50 entry was “Not Active”. In addition, the inhibition constant (Ki) result in assay [3] is given as “Not Active”.
For the compound `NC1CCN(c2nc3c(cc2F)c(=O)c(C(=O)O)cn3-c2ccc(F)cc2F)C1` (stereo not given) [TOSUFLOXACIN], the IC50 result in assay [1], in assay [6] (cho-k1), in assay [7] (mdck), in assay [2], in assay [3] and in assay [4] (hek293) was “Not Active” throughout. The concentration for half-maximal inhibition (IC50) result in assay [5] was “Not Active”. For the same compound, the Ki entry in assay [3] is listed as “Not Active”.
Turning to `N#Cc1ccc(C(c2ccc(C#N)cc2)n2cncn2)cc1` [LETROZOLE], the IC50 entry in assay [1], in assay [6] (cho-k1), in assay [7] (mdck), in assay [2], in assay [3] and in assay [4] (hek293) was “Not Active” throughout. In assay [5], the IC50 result is reported as “Not Active”. Besides, the Ki entry in assay [3] is “Not Active”.
As for `O=C(Nc1ccc(Br)cc1)c1cc(Br)cc(Br)c1O` [TRIBROMSALAN], the IC50 entry in assay [1], in assay [6] (cho-k1), in assay [7] (mdck), in assay [2], in assay [3] and in assay [4] (hek293) was “Not Active” throughout. In addition, in assay [5], the IC50 result is given as “Not Active”. Further, the Ki result in assay [3] is given as “Not Active”.
Consider `O=C1Nc2ccc(Cl)cc2C(c2ccccc2Cl)=NC1O` (stereo not given) [LORAZEPAM], for which the IC50 entry in assay [1], in assay [6] (cho-k1), in assay [7] (mdck), in assay [2], in assay [3] and in assay [4] (hek293) was “Not Active” in each case. For the same compound, in assay [5], the IC50 result is “Not Active”. For the same compound, the Ki entry in assay [3] was “Not Active”.
As to `CC(C)Oc1ccc2c(=O)c(-c3ccccc3)coc2c1` [IPRIFLAVONE], the IC50 entry in assay [1], in assay [6] (cho-k1), in assay [2], in assay [3], in assay [4] (hek293) and in assay [5] was “Not Active” throughout. Further, the Ki entry in assay [3] is given as “Not Active”.
`CNC1(c2ccccc2Cl)CCCCC1=O` (stereo not given) [KETAMINE]: the IC50 entry in assay [1], in assay [6] (cho-k1), in assay [7] (mdck), in assay [2], in assay [3] and in assay [4] (hek293) was “Not Active” in each case. Moreover, the half-inhibitory concentration (IC50) entry in assay [5] is reported as “Not Active”. Besides, the Ki result in assay [3] is given as “Not Active”.
`O=C(O)c1cn(-c2ccc(F)cc2)c2cc(N3CCNCC3)c(F)cc2c1=O` [SARAFLOXACIN]: the IC50 entry in assay [1], in assay [6] (cho-k1), in assay [7] (mdck), in assay [2], in assay [3] and in assay [4] (hek293) was “Not Active” throughout. The IC50 result in assay [5] is “Not Active”. In assay [3], the Ki entry was “Not Active”.
Turning to `CCN(CC)CCOc1ccc(/C(=C(/Cl)c2ccccc2)c2ccccc2)cc1` [ENCLOMIPHENE], the IC50 result in assay [1], in assay [6] (cho-k1), in assay [2], in assay [4] (hek293) and in assay [5] was “Not Active” each time.
Turning to SODIUM ORTHOVANAD, the IC50 result in assay [1], in assay [6] (cho-k1), in assay [7] (mdck), in assay [2], in assay [3] and in assay [4] (hek293) was “Not Active” throughout. For the same compound, the IC50 entry in assay [5] is “Not Active”. Besides, the Ki result in assay [1], in assay [6] (cho-k1), in assay [7] (mdck), in assay [2], in assay [3] and in assay [4] (hek293) was “Not Active” each time. The inhibition constant (Ki) entry in assay [5] is given as “Not Active”.
As for `Cn1c(=O)c2nc[nH]c2n(C)c1=O.O` [THEOPHYLLINE], the IC50 result in assay [1], in assay [6] (cho-k1), in assay [7] (mdck), in assay [3], in assay [4] (hek293) and in assay [5] was “Not Active” throughout. In addition, in assay [3], the Ki result was “Not Active”.
In the case of `CN[C@H]1CC[C@@H](c2ccc(Cl)c(Cl)c2)c2ccccc21` [SERTRALINE], the IC50 entry in assay [1], in assay [6] (cho-k1), in assay [2], in assay [4] (hek293) and in assay [5] was “Not Active” throughout.
As to `CN(C)CCOC(c1ccccc1)c1ccccc1` [DIPHENHYDRAMINE], the IC50 result in assay [1], in assay [6] (cho-k1), in assay [2], in assay [4] (hek293) and in assay [5] was “Not Active” each time.
Turning to `Fc1ccc(C(c2ccc(F)cc2)N2CCN(C/C=C/c3ccccc3)CC2)cc1` [FLUNARIZINE], the IC50 result is “Not Active” in assay [1]; “Not Active” in assay [6] (cho-k1); 1.34 µM in assay [7] (read-out: IC50); “Not Active” in assay [2]; 1.08 µM in assay [4] (read-out: IC50); “Not Active” in assay [5]. Further, the Ki in assay [7] (read-out: Ki) is 1.33 µM; in assay [4] (read-out: Ki) it was 0.533 µM.
In the case of `CNCCC(Oc1ccc(C(F)(F)F)cc1)c1ccccc1` (stereo not given) [FLUOXETINE], the IC50 entry in assay [1], in assay [6] (cho-k1), in assay [2], in assay [4] (hek293) and in assay [5] was “Not Active” throughout.
Take `Cc1ccc(NC(=O)c2ccc(CN3CCN(C)CC3)cc2)cc1Nc1nccc(-c2cccnc2)n1` [IMATINIB]: the IC50 entry in assay [1] was “Not Active”; in assay [6] (read-out: IC50), 1.96 µM; in assay [7] (mdck), “Not Active”; in assay [2] it was “Not Active”; in assay [4] (hek293), “Not Active”; in assay [5], “Not Active”. For the same compound, the Ki in assay [6] (read-out: Ki) was determined as 1.93 µM.
Take `Clc1ccc(COC(Cn2ccnc2)c2ccc(Cl)cc2Cl)cc1` (stereo not given) [ECONAZOLE]: the results for the IC50 entry in assay [1], in assay [4] (read-out: IC50) and in assay [5] were “Not Active”, 8.9 µM and “Not Active”, respectively. For the same compound, the Ki in assay [4] (read-out: Ki) stood at 4.37 µM.

By IC50 is commonly meant the point on the concentration scale where inhibition reaches its midpoint. Broadly, the Ki is a measure of affinity in units of concentration, obtained from inhibition or displacement.
